Source: patent US20130303564A1, “METHOD FOR TREATING A NEURODEGENERATIVE DISORDER” (RUSH UNIVERSITY MEDICAL CENTER, priority 2012, published 2013)
Like-named read-outs stand apart in the source and are kept apart here. Marks after values point to notes of the source that are not given here.

Key:
phospho-IκBα = conditions: 0.5 mM, 6 h preincubation, LPS 1 μg/ml
Method: (A) BV-2 microglial cells preincubated with 0.5 mM NaPB for 6 h were stimulated with 1 μg/ml LPS. At different minute of stimulation, the level of phospho-1κBα was monitored by Western blot.
Activation of NF-κB was monitored by IκBαphosphorylation, DNA binding activity by EMSA and transcriptional activity by reporter assays.

NF-κB = experiment: Transcriptional activity of NF-κB (PBIIX-Luc reporter) in BV-2 microglial cells; assay type: cell-based, mouse
Method: Transcriptional activity of NF-κB: Transcriptional activity of NF-κB was assayed. […] After 24 h of transfection, […], and firefly and Renilla luciferase activities were recorded in a TD-20/20 Luminometer (Turner Designs, Sunnyvale, Calif.) by analyzing total cell extract according to standard instructions provided in the Dual Luciferase Kit (Promega), Relative luciferase activity of cell extracts was typically represented as (firefly luciferase value/Renilta luciferase value)×10^−3.

iNOS = test system: iNOS
Method: (§1) Mouse BV-2 microglial cells were treated with different concentrations of NaPB for 6 h followed by stimulation with 1 μM. MPP under serum-free condition. After 5 h of stimulation, the mRNA expression of iNOS, IL-1β and TNF-α was monitored by semi-quantitative RT-PCR (A) and quantitative real-time PCR (C, iNOS; D, IL-1β; E, TNF-α). After 24 h of stimulation, the protein expression of iNOS was monitored by Western blot (B).
(§2) Glial inflammation is a critical component of PD pathogenesis which is mirrored in MPTP mouse models. The neurotoxic effect of MPTP depends on its conversion into MPP+. In glial cells, MAO-B converts MPTP to MPP+, which then leads to glial activation. MPP+ is able to stimulate the microglial expression of inflammatory molecules including NO, TNF-α, IL-1β, and IL-6. Although, a well characterized receptor for MPP+ was not known in microglial cells until recent past, low dose of MPP+ stimulates microglial activation via the engagement of cysteinyl leukotriene receptor (CysLT1R), MPP+ dependent activation of CysLT1R and its subsequent translocation from plasma membrane to cytosol plays a critical role in the process of microglial activation. Therefore, we investigated MPP+ could induce the expression of proinflammatory molecules microglia and if NaPB suppressed such induction.
(§3) Real-time PCR analysis: It was performed in the ABI-Prism7700 sequence detection system (Applied Biosystems, Foster City, Calif.) using TaqMan Universal Master mix and optimized concentrations of FAM-labeled probes and primers.

TNF-α [1] = conditions: different concentrations, 6 h preincubation, 1 μM MPP+ 5 h
Method: as §1, §2, §3

IL-1β [2] = conditions: different concentrations, 6 h preincubation, 1 μM MPP+ 5 h
Method: as §1, §2, §3

[3] = test system: RelA p65 at the mouse iNOS promoter; conditions: 0.5 mM, 6 h preincubation, LPS 2 h; proximal NF-κB binding site
Method: D) Cells preincubated with 0.5 mM NaPB for 6 h were stimulated with LPS for 2 h followed by monitoring the recruitment of RelA p65 to the mouse iNOS promoter by ChIP assay.
Therefore, next we examined the effect of NaPB on the recruitment of p65 to the proximal NF-κB binding site of the iNOS promoter.
Chromatin immunoprecipitation (CUP): ChIP assays were performed using a ChIP assay kit (Upstate Biotechnology, Lake Placid, N.Y.). Briefly, 2×10^6 microglial cells preincubated with gemfibrozil for 6 h were stimulated with LPS. After 3 h of stimulation, cells were fixed by adding formaldehyde (1% final concentration), and cross-linked adducts were resuspended and sonicated, resulting in an average chromatin fragment size of 400 bp. ChIP was performed on the cell lysate by overnight incubation at 4° C. with 2 μg of antibodies against p65 followed by incubation with protein G agarose (Santa Cruz Biotechnology) for 2 h. The beads were washed and incubated with elution buMr. To reverse the cross-linking and purify the DNA, precipitates were incubated in a 65° C. incubator overnight and digested with proteinase K. DNA samples were then purified, precipitated, and precipitates were washed with 75% ethanol, air-dried, and resuspended in TE buffer.

[4] = test system: dopaminergic neurons of MPTP-intoxicated mice; conditions: 200 mg/kg body wt/day from 3 h after last MPTP, 7 d
Method: Mice receiving NaPB (200 mg/kg body wt/day) from 3 h after the last injection of MPTP were sacrificed 7d after the last injection of MPTP followed by TH immunostaining of SNpc (A) and striatum (B), counting of TH-positive neurons in SNpc (C), quantification of TH-positive fibers in striatum (D), assay of neurotransmitters in striatum (E), and quantification of GSH in nigra (F). Data are means+SEM of eight mice per group. ^ap<0.0001 vs saline group; ^bp<0.0001 vs the MPTP group.
For acute MPTP intoxication, mice received four intraperitoneal (i.p.) injections of MPTP-HCl (18 mg/kg of free base; Sigma Chemical Co., St. Louis, Mo.) in saline at 2 hr intervals. Control animals received only saline. For chronic MPTP intoxication, mice received 10 injections of MPTP (s.c.; 25 mg/kg body weight) together with 10 injections of probenecid (i.p.; 250 mg/kg body weight) at an interval of 3.5 d.
Therefore, for short-term treatment, mice with acute MPTP 3 h after the last injection of MPTP. […]
Immunohistochemistry and quantitative morphology: Seven days after MPTP intoxication, mice were sacrificed and their brains fixed, embedded, and processed for tyrosine hydroxylase (TH) staining. […] Quantitation of striatal TH immunostaining was performed. […]

p21^rac [5] = conditions: 200 mg/kg body wt/day gavage from 1 d prior to MPTP; 6 h after last MPTP
Method: A) Mice were treated with NaPB (200 mg/kg body wt/d.) via gavage from 1 d prior to MPTP injection. Six h after the last injection of MPTP, activation of p21^ras and p21^rac was monitored in ventral midbrain tissues. Experiment was repeated three times each time using two animal in each group. B) Bands from three different mice were quantified and activation of p21^ras and p21^rac is shown as percent of control, C) Mice were treated with NaPB (200 mg/kg body wt/d) from 3 h after the last injection of MPTP.
Animals and MPTP intoxications: Six- to eight-week old C57BL/6 mice were purchased from Harlan, Indianapolis, Ind. For acute MPTP intoxication, mice received four intraperitoneal (i.p.) injections of MPTP-HCl (18 mg/kg of free base; Sigma Chemical Co., St. Louis, Mo.) in saline at 2 hr intervals. Control animals received only saline.

cholesterol = experiment: Serum cholesterol in male C57/BL6 mice; assay type: in vivo, mouse; conditions: 200 mg/kg body wt/d, oral, 7 d
Method: Mice (6-8 wk old) were treated with NaPB (200 mg/kg body wt/d) and pravastatin (1 mg/kg body wt/d) separately via gavage for 7 d followed by quantification of cholesterol in serum using a simple fluorometric method.
Intermediates of the mevalonate pathway play a role in the expression of iNOS and proinflammatory cytokines in glial cells. End product of the mevalonate pathway is cholesterol and therefore, we investigated if NaPB had any effect on the level of cholesterol in vivo in mice.
Assay of cholesterol in serum: Total cholesterol was quantified irr serum by using an Amplex Red Cholesterol Assay kit from Invitrogen. Briefly, cholesterol was oxidized by cholesterol oxidase to yield H2O2, which then reacted with 10-acetyl-3,7 dihydroxyphenoxazine (Amplex Red). In the presence of horseradish peroxidase (HRP), this Amplex Red:H2O2 complex produced highly fluorescent resorufin, which was detected by fluorometry.

p21^rac [6] = conditions: 500 μM preincubation
Method: D) Cells preincubated with 500 μM NaPB were stimulated with LPS. At different time points, activation of p21^ras and p21^rac was monitored. Results represent three independent experiments.

TNF-α [7] = test system: TNF-α
Method: (§4) Activated microglia and astroglia are known to produce excessive amount of NO having the potential of damaging neurons in neurodegenerative disorders. We investigated the effect of NaPB on the expression of iNOS in microglia. LPS is a prototype inducer of various proinflammatory molecules in different cell types including mouse microglia. Therefore, primary mouse microglia preincubated with different doses of NaPB for 6 h were stimulated with LPS under serum-free condition. […] We used trichostatin A (TSA) and sodium butyrate (NaBu) for this purpose.
(§5) Isolation of Mouse Microglia: Microglia were isolated from mixed glial cultures. Briefly, on day 7-9, the mixed glial cultures were washed three times with Dulbecco's modified Eagle's medium/F-12 and subjected to shaking at 240 rpm for 2 h at 37° C. on a rotary shaker. The floating cells were washed and seeded on to plastic tissue culture flasks and incubated at 37° C. for 1 h. The attached cells were seeded onto new plates for further studies. […] Mouse BV-2 microglial cells (kind gift from Virginia Bocchini of Universityof Perugia) were also maintained and induced as indicated above.

IL-1β [8] = test system: IL-1β
Method: as §4, §5

[9] = RasV12-transfected cells, NaPB 6 h
[10] = LPS + NaPB (0.1 mM), 6 hrs preincubation, LPS 24 hrs, supernatant ELISA
[11] = LPS + NaPB (0.2 mM), 6 hrs preincubation, LPS 24 hrs, supernatant ELISA
[12] = LPS + NaPB (0.5 mM), 6 hrs preincubation, LPS 24 hrs, supernatant ELISA

Substance: sodium phenylbutyrate [NaPB]
- LPS-induced phosphorylation of IκBα (phospho-IκBα): inhibited
- RasV12-induced activation of NF-κB (NF-κB; [9]): attenuated
- LPS-induced transcriptional activity of NF-κB (NF-κB; different concentrations, 6 h preincubation): suppressed
- MPP+-induced iNOS mRNA expression (iNOS; 6 h preincubation, 1 μM MPP+ 5 h): suppressed
- MPP+-induced iNOS protein expression (iNOS; 6 h preincubation, 1 μM MPP+ 24 h, Western blot): suppressed
- RasV12-induced expression of iNOS mRNA (iNOS; [9]): attenuated
- MPP+-induced expression of TNF-α mRNA (TNF-α [1]): inhibited
- MPP+-induced expression of IL-1β mRNA (IL-1β [2]): inhibited
- recruitment of p65 to the iNOS promoter [3]: inhibited
- reduction in striatal TH ODs ([4]; vs MPTP alone (70% reduction)): less reduction
- reduction in SNpc TH-positive neurons ([4]; vs MPTP alone (approximately 75% loss)): less reduction
- MPTP-induced activation of p21^rac in the nigra (p21^rac [5]): much decreased activation
- reduction of the level of cholesterol in serum (cholesterol): about 30%
- LPS-induced activation of p21^rac (p21^rac [6]): markedly suppressed
- TNF-α production (TNF-α [7]; [10]): 16.8 ± 1.5 ng/mg protein/24 hr
- TNF-α production (TNF-α [7]; [11]): 12.7 ± 0.8 ng/mg protein/24 hr
- TNF-α production (TNF-α [7]; [12]): 8.6 ± 1.1^a ng/mg protein/24 hr
- TNF-α production (TNF-α [7]; NaPB (0.5 mM) only, no LPS): 0 ng/mg protein/24 hr
- production of TNF-α protein in activated microglia (TNF-α [7]; Table 1): dose-dependently inhibited
- IL-1β production (IL-1β [8]; [10]): 9.9 ± 1.4 ng/mg protein/24 hr
- IL-1β production (IL-1β [8]; [11]): 7.5 ± 1.1 ng/mg protein/24 hr
- IL-1β production (IL-1β [8]; [12]): 5.3 ± 0.6^a ng/mg protein/24 hr
- IL-1β production (IL-1β [8]; NaPB (0.5 mM) only, no LPS): 0 ng/mg protein/24 hr
- production of IL-1β protein in activated microglia (IL-1β [8]; Table 1): dose-dependently inhibited
